# How the values were obtained:
# [1] = target: T1, Aurora-A(h) (Homo sapiens, UniProt O14965); experiment: kinase profile, radiometric assay, Aurora-A; assay type: biochemical
# T1 construct: purchased Eurofins, Dundee, Scotland
# T1 sequence (O14965 1-403): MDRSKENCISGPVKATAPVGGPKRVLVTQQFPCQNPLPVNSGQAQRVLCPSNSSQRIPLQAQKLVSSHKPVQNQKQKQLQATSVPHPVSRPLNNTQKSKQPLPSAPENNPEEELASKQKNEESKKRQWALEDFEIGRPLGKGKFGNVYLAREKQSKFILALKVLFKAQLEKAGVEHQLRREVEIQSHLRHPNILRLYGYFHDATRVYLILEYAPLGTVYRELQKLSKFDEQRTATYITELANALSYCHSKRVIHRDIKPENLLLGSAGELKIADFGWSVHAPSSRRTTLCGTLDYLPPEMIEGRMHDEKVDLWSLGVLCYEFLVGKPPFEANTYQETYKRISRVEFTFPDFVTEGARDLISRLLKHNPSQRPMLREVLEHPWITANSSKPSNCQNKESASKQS
# Experimental: (§1) Enzymatic biochemical activities were evaluated in radiometric protein kinase assays (Eurofins, Dundee, Scotland). Kinases are incubated with buffer, substrate and [γ-^33P]-ATP (specific activity approx. 500 cpm/pmol, concentration as required). The reaction is initiated by the addition of the MgATP mix. After incubation for 40 minutes at room temperature, the reaction is stopped by the addition of 3% phosphoric acid solution. 10 μL of the reaction is then spotted onto a P30 filtermat and washed three times for 5 minutes in 75 mM phosphoric acid and once in methanol prior to drying and scintillation counting.
# (§2) All compounds are prepared to 50× final assay concentration in 100% DMSO. Positive control wells contain all components of the reaction with 2% DMSO. Blank wells contain all components of the reaction, with a reference inhibitor replacing the compound of interest. Each kinase is assigned a standard assay concentration of ATP within 20 μM of its apparent KM. Compounds were screened at 1 μM in duplicate or tested at 10 concentrations at half log dilution starting from 10 μM in singlicate. Dose response curves were fitted with four parameter logistic curve to obtain IC50 values. The average coefficient of variation (CV) of the conducted assay is 4.4%.
# [2] = target: T2, MEKK2(h) (Homo sapiens, UniProt Q9Y2U5); experiment: kinase profile, radiometric assay, MEKK2; assay type: biochemical
# T2 construct: purchased Eurofins, Dundee, Scotland
# T2 sequence (Q9Y2U5 1-619): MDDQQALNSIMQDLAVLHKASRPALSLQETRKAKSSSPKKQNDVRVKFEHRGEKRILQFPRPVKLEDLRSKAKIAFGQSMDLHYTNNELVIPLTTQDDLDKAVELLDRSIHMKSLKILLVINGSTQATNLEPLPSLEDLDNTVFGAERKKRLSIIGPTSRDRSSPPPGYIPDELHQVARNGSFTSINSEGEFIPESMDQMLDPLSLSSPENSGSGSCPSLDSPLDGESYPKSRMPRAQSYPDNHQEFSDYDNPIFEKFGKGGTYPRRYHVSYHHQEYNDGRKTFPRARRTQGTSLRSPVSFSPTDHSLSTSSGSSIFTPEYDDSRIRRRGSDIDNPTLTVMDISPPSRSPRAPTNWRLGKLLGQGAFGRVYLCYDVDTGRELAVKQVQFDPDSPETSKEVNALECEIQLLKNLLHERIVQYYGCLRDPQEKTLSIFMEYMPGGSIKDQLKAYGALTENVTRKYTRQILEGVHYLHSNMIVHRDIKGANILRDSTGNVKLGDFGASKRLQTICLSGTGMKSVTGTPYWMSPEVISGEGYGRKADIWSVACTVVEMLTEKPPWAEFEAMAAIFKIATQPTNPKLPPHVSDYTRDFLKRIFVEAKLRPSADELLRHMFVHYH
# Experimental: as §1, §2
# [3] = target: T3, CLK3(h) (Homo sapiens, UniProt P49761); experiment: radiometric protein kinase assay, CLK3; assay type: biochemical; settings: enzyme inhibition, radiometric, ATP 90 μM; read-out: IC50 (nM) CLK3
# T3 construct: purchased Eurofins, Dundee, Scotland
# Experimental: as §1, §2
# [4] = target: T4, CDK1/cyclinB(h) (Homo sapiens, UniProt P06493); experiment: radiometric protein kinase assay, CDK1; assay type: biochemical; settings: enzyme inhibition, ATP 45 μM
# T4 construct: purchased Eurofins, Dundee, Scotland
# Experimental: as §1, §2
# [5] = target: T5, CDK4/cyclinD3(h) (Homo sapiens, UniProt P11802); experiment: radiometric protein kinase assay, CDK4; assay type: biochemical; settings: enzyme inhibition, ATP 20 μM
# T5 construct: purchased Eurofins, Dundee, Scotland
# Experimental: as §1, §2
# [6] = target: T6, CDK6/cyclinD3(h) (Homo sapiens, UniProt Q00534); experiment: radiometric protein kinase assay, CDK6; assay type: biochemical; settings: enzyme inhibition, ATP 20 μM
# T6 construct: purchased Eurofins, Dundee, Scotland
# Experimental: as §1, §2
# [7] = test system: MDM2 alternate splicing in Rh-18 cells; experiment: Rh-18 MDM2 RT-PCR gel-based assay (orthogonal secondary assay); assay type: cell-based; settings: 10 μM, 8 h
# Experimental: These hits were then subjected to a confirmatory assay in the Rh-18 MDM2 RT-PCR gel-based assay at a concentration of 10 μM.
# Referring to FIG. 6, cells were exposed to 0.5% DMSO, 0.2 μM sudemycin D6 or […] CGP-74514A for 8 h. Total RNA was extracted by RNeasy Mini Kit (Qiagen). High capacity RNA-to-cDNA kit (Life technologies) was used to convert the RNA to cDNA.
# Referring to FIG. 7, cells were exposed to 0.5% DMSO (lane 1), 1 μM sudemycin D6 (lane 2), 10 μM Compound 14 (lane 3), and 10 μM Compound 15 (lane 4) for 8 h. The total RNA was extracted by RNeasy Mini Kit (Qiagen). High capacity RNA-to-cDNA kit (Life technologies) was used to convert the RNA to cDNA. […] Ubiquitin transcripts (165 bp) in the same cells were used as a control (Fan et al. (2011) ACS Chem. Biol. 6: 582-9).
# [8] = test system: 22 oncogenic kinases; experiment: kinase profiling against 22 oncogenic kinases; assay type: biochemical, human; settings: 1 μM in duplicate
# Experimental: as §1, §2
# T3 sequence (P49761 whole entry): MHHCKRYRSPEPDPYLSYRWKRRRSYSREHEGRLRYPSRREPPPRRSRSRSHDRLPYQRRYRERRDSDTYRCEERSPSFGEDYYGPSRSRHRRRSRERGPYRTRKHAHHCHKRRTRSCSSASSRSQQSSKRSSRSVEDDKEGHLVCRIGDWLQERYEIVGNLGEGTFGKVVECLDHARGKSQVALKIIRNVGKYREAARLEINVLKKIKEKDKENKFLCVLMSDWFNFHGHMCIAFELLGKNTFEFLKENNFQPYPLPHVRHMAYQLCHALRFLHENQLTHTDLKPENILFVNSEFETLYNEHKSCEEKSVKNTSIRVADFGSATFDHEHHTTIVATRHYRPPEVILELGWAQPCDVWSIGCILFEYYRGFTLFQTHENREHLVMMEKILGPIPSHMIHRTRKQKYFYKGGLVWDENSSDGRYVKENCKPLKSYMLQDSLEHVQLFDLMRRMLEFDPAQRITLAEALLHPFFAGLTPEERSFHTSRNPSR
# T4 sequence (P06493 whole entry): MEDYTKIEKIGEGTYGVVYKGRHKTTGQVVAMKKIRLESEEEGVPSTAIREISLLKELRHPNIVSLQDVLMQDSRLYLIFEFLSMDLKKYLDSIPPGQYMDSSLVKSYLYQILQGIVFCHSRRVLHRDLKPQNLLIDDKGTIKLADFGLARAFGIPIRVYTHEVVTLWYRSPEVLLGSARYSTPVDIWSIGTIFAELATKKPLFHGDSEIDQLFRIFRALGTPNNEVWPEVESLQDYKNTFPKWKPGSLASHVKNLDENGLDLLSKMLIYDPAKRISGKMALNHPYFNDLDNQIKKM
# T4 sequence (P14635 whole entry partner): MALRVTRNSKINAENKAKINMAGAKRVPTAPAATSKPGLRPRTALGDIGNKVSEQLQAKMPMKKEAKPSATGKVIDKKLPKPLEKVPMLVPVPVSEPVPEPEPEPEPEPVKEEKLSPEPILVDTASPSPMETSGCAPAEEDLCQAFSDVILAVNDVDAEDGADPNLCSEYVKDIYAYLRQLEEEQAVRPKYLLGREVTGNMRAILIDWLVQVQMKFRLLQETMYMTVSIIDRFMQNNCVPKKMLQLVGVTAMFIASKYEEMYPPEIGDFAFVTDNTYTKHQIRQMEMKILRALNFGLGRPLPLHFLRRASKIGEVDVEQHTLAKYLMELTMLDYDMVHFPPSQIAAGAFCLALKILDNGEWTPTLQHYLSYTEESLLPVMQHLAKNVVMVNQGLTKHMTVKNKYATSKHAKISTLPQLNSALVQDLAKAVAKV
# T5 sequence (P11802 whole entry): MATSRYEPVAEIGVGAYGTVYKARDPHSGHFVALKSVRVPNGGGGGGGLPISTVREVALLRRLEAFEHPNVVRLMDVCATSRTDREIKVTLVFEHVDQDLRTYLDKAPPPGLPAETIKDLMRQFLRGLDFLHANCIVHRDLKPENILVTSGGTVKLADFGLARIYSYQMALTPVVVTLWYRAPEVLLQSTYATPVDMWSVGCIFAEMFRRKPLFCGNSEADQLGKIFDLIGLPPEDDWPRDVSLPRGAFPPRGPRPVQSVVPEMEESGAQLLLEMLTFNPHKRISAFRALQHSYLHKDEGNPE
# T5 sequence (P30281 whole entry partner): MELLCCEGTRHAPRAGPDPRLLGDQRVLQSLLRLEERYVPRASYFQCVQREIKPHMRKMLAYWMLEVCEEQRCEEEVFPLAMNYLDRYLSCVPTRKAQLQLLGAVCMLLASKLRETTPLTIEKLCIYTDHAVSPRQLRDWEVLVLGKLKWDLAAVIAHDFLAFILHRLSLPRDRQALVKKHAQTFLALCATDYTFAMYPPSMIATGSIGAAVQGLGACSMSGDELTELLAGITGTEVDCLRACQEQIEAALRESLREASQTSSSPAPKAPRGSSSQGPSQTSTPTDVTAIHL
# T6 sequence (Q00534 whole entry): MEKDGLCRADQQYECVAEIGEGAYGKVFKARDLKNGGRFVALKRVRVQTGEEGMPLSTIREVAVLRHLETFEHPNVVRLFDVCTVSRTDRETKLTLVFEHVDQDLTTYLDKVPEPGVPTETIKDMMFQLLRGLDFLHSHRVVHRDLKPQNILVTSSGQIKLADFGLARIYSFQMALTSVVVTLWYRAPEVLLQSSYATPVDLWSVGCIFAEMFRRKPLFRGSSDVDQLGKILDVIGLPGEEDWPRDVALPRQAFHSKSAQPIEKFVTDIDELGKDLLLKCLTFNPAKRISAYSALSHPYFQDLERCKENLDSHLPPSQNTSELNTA
# T6 sequence (P30281 whole entry partner): as the sequence (P30281 whole entry partner) above
IC50 [3],IC50 [4],IC50 [5],IC50 [6],Compound,inhibition at 1 µM [1],inhibition at 1 µM [2],activity in the Rh-18 MDM2 RT-PCR gel-based confirmatory assay [7],inhibition against the entire 22 diverse kinase panel [8]
–,–,–,–,"CC(C)n1cnc2c(Nc3cccc(Cl)c3)nc(N[C@@H]3CCCC[C@@H]3N)nc21 [Compound 9, N^2-((1R,2S)-2-Aminocyclohexyl)-N^6-(3-Chlorophenyl)-9-Isopropyl-9H-Purine-2,6-Diamine]",-5%,18%,–,–
> 1000 nM,973 nM,> 1000 nM,> 1000 nM,"CC(C)n1cnc2c(Nc3cc(N)cc(Cl)c3)nc(NC3CCCCC3N)nc21 (racemic) [Compound 14, Racemic N^6-Cis-(3-Amino-5-Chlorophenyl)-N^2-(2-Aminocyclohexyl)-9-Isopropyl-9H-Purine-2,6-Diamine]",13%,48%,confirmation,–
–,–,–,–,"CC(C)n1cnc2c(Nc3cccc(Cl)c3)nc(N[C@H]3CCCC[C@@H]3N)nc21 [Compound 8, N^2-((1S,2S)-2-Aminocyclohexyl)-V-(3-Chlorophenyl)-9-Isopropyl-9H-Purine-2,6-Diamine]",4%,47%,–,< 50%
